# According to patent US4001272A, “Herbicidal 2-fluoro-4-halo-phenyl-4,5,6,7-tetrahydro-2H-isoindole-1,3-diones” (E. I. Du Pont de Nemours and Company, priority 1974, dated 1977):
# What was measured:
# Assay type in all cases: in vivo
# soybeans = assay: Test A: field test, crop response of soybeans; details: seven weeks, 0 = no injury to 10 = complete kill
# Description: (§1) In test A, soybeans, peanuts, lima beans, green beans and squash were planted in a field infested with the following weed seeds: crabgrass (Digitaria sanquinalis), foxtails (Setaria spp.), barnyardgrass (Echinochloa crusgalli), pigweed (Amaranthus spp.), ragweed (Ambrosia artemisiifolia), velvetleaf (Abutilon theophrasti), purslane (Portulaca oleracea) and flower-of-an-hour (Hibiscus trionum). A 50% wettable powder formulation of 2-(4-chloro-2-fluorophenyl)-4,5,6,7-tetrahydro-2H-isoindole-1,3-dione was applied in the form of an aqueous suspension at rates of 0.125, 0.25, 0.5 and 1.0 kg/ha, each treatment replicated twice. The plots were rated for percent weed control and crop response seven weeks after treatment. Crop response was expressed on a scale of 0 = no injury to 10 = complete kill.
# [1] = test system: flower-of-an-hour (Hibiscus trionum); assay: Test A: field test, percent weed control of flower-of-an-hour; details: seven weeks after treatment
# Description: as §1
# [2] = test system: barnyardgrass (Echinochloa crusgalli); assay: Test A: field test, percent weed control of barnyardgrass; details: seven weeks after treatment
# Description: as §1
# rice, variety Nato = assay: Test C: crop response of rice Nato; details: 29 days, 0 = no injury to 10 = complete kill; for Crop Response, Rice Nato, 1 cm: planting depth 1 cm; for Crop Response, Rice Nato, 2 cm: planting depth 2 cm; for Crop Response, Rice Nato, T: transplanted
# Description: (§2) In test A, soybeans, peanuts, lima beans, green beans and squash were planted in a field infested with the following weed seeds: crabgrass (Digitaria sanquinalis), foxtails (Setaria spp.), barnyardgrass (Echinochloa crusgalli), pigweed (Amaranthus spp.), ragweed (Ambrosia artemisiifolia), velvetleaf (Abutilon theophrasti), purslane (Portulaca oleracea) and flower-of-an-hour (Hibiscus trionum). […] The plots were rated for percent weed control and crop response seven weeks after treatment. Crop response was expressed on a scale of 0 = no injury to 10 = complete kill.
# (§3) Test C concerned preemergence weed control in rice. The field selected contained seeds of the following weed species: crabgrass (Digitaria sanquinalis), foxtail (Setaria spp.), barnyardgrass (Echinochloa crusgalli), pigweed (Amaranthus spp.), ragweed (Ambrosia artemisiifolia), velvetleaf (Abutilon theophrasti), purslane (Portulaca oleracea) and flower-of-an-hour (Hibiscus trionum). Two varieties of rice, CSM-3 and Nato, were planted at depths of both 1 and 2 cm. In addition, rice seedlings of both varieties were transplanted into the field to be treated. […] The test chemicals had been formulated as 50% wettable powders. Overall spray volume was 540 l/ha.
# [3] = test system: ragweed (Ambrosia artemisiifolia); assay: Test B: overall spray in carrot field after weed emergence, percent control of ragweed; details: six weeks after treatment, 0.1% Tween 20
# Description: (§4) Test B involved a field sown to carrots and in which the following weed species emerged naturally: crabgrass (Digitaria sanquinalis), foxtails (Setaria spp.), barnyardgrass (Echinochloa crusgalli), pigweed (Amaranthus spp.), ragweed (Ambrosia artemisiifolia), velvetleaf (Abutilon theophrasti), smartweed (Polygonum spp.) and lambsquarters (Chenopodium album). Sixteen days after sowing, when all species of weeds had emerged, the plants were sprayed overall with a 50% wettable powder formulation of 2-(4-chloro-2-fluorophenyl)4,5,6,7-tetrahydro-2H-isoindole-1,3dione (Treatment I) in the form of an aqueous suspension, at rates of 0.5, 1.0, 2.0 and 4.0 kg/ha, and with 2-(4-chlorophenyl)-4,5,6,7-tetrahydro-2H-isoindole-1,3-dione (Treatment II) in the same form and at the same rates. The spray volume was 425 l/ha. The surfactant Tween 20* was added to all treatments in a concentration of 0.1% by weight. Six weeks after treatment, visual observations were made of percent weed control obtained and, for carrots, crop response.
# (§5) *Tween 20 -- A trademark of ICI of America which is the reaction product of sorbitan monolaurate with an average of 20 moles of ethylene oxide.
# [4] = test system: barnyardgrass (Echinochloa crusgalli); assay: Test B: overall spray in carrot field after weed emergence, percent control of barnyardgrass; details: six weeks after treatment, 0.1% Tween 20
# Description: as §4, §5
# [5] = test system: purslane (Portulaca oleracea); assay: Test C: preemergence weed control in rice, purslane; details: 29 days after treatment
# Description: as §1
# Test C concerned preemergence weed control in rice. The field selected contained seeds of the following weed species: crabgrass (Digitaria sanquinalis), foxtail (Setaria spp.), barnyardgrass (Echinochloa crusgalli), pigweed (Amaranthus spp.), ragweed (Ambrosia artemisiifolia), velvetleaf (Abutilon theophrasti), purslane (Portulaca oleracea) and flower-of-an-hour (Hibiscus trionum). Two varieties of rice, CSM-3 and Nato, were planted at depths of both 1 and 2 cm. In addition, rice seedlings of both varieties were transplanted into the field to be treated. Immediately thereafter, the plot was treated with an aqueous suspension of 2-(4-chloro-2-fluorophenyl)-4,5,6,7-tetrahydro-2H-isoindole-1,3-dione (Treatment I) at rates of 0.125 and 0.25 kg/ha, and an aqueous suspension of 2-(4-chlorophenyl)-4,5,6,7-tetrahydro-2H-isoindole-1,3dione (Treatment II) at rates of 0.25, 0.50, 1.00 and 2.00 kg/ha. The test chemicals had been formulated as 50% wettable powders. Overall spray volume was 540 l/ha. Ratings of percent weed control obtained and crop response were made 29 days after treatment, as described for test A. The ratings are summarized in the following Table III.
# rice, variety CSM-3 = assay: Test C: crop response of rice CSM-3; details: 29 days, 0 = no injury to 10 = complete kill; for Crop Response, Rice CSM-3, 1 cm: planting depth 1 cm; for Crop Response, Rice CSM-3, 2 cm: planting depth 2 cm; for Crop Response, Rice CSM-3, T: transplanted
# Description: as §2, §3
# [6] = test system: velvetleaf (Abutilon theophrasti); assay: Test A: field test, percent weed control of velvetleaf; details: seven weeks after treatment
# Description: as §1
# naturally emerging weeds = assay: Test B: control of naturally emerging weeds, comparison of treatments
# Description: as §4, §5
# carrots = assay: Test B: overall spray in carrot field after weed emergence, crop response of carrots; details: six weeks after treatment, 0.1% Tween 20
# Description: as §4, §5
compound,measurement,setting,value
"O=C1C2=C(CCCC2)C(=O)N1c1ccc(Cl)cc1F [Treatment I, 2-(4-chloro-2-fluorophenyl)-4,5,6,7-tetrahydro-2H-isoindole-1,3-dione]","Crop Response, Soybeans",soybeans; 0.125 kg/ha,0
same,"Crop Response, Soybeans",soybeans; 0.25 kg/ha,1.5
same,"Crop Response, Soybeans",soybeans; 0.50 kg/ha,3
same,"Crop Response, Soybeans",soybeans; 1.00 kg/ha,7.5
same,"% Control, Flower-of-an-Hour",[1]; 0.125 kg/ha,87%
same,"% Control, Flower-of-an-Hour",[1]; 0.25 kg/ha,99%
same,"% Control, Flower-of-an-Hour",[1]; 0.50 kg/ha,99%
same,"% Control, Flower-of-an-Hour",[1]; 1.00 kg/ha,100%
same,"% Control, Barnyardgrass",[2]; 0.125 kg/ha,45%
same,"% Control, Barnyardgrass",[2]; 0.25 kg/ha,82%
same,"% Control, Barnyardgrass",[2]; 0.50 kg/ha,98%
same,"% Control, Barnyardgrass",[2]; 1.00 kg/ha,99%
same,"Crop Response, Rice Nato, 1 cm","rice, variety Nato; 0.125 kg/ha",3
same,"Crop Response, Rice Nato, 2 cm","rice, variety Nato; 0.125 kg/ha",1
same,"Crop Response, Rice Nato, T","rice, variety Nato; 0.125 kg/ha",0
same,"Crop Response, Rice Nato, 1 cm","rice, variety Nato; 0.25 kg/ha",6
same,"Crop Response, Rice Nato, 2 cm","rice, variety Nato; 0.25 kg/ha",2
same,"Crop Response, Rice Nato, T","rice, variety Nato; 0.25 kg/ha",0
same,"% Control, Ragweed",[3]; 0.5 kg/ha,98%
same,"% Control, Ragweed",[3]; 1.0 kg/ha,> 99%
same,"% Control, Ragweed",[3]; 2.0 kg/ha,100%
same,"% Control, Ragweed",[3]; 4.0 kg/ha,100%
same,"% Control, Barnyardgrass",[4]; 0.5 kg/ha,65%
same,"% Control, Barnyardgrass",[4]; 1.0 kg/ha,90%
same,"% Control, Barnyardgrass",[4]; 2.0 kg/ha,94%
same,"% Control, Barnyardgrass",[4]; 4.0 kg/ha,> 99%
same,"% Control, Purslane",[5]; 0.125 kg/ha,100%
same,"% Control, Purslane",[5]; 0.25 kg/ha,100%
same,"Crop Response, Rice CSM-3, 1 cm","rice, variety CSM-3; 0.125 kg/ha",3
same,"Crop Response, Rice CSM-3, 2 cm","rice, variety CSM-3; 0.125 kg/ha",0
same,"Crop Response, Rice CSM-3, T","rice, variety CSM-3; 0.125 kg/ha",0
same,"Crop Response, Rice CSM-3, 1 cm","rice, variety CSM-3; 0.25 kg/ha",5
same,"Crop Response, Rice CSM-3, 2 cm","rice, variety CSM-3; 0.25 kg/ha",1
same,"Crop Response, Rice CSM-3, T","rice, variety CSM-3; 0.25 kg/ha",0
same,"% Control, Velvetleaf",[6]; 0.125 kg/ha,90%
same,"% Control, Velvetleaf",[6]; 0.25 kg/ha,99%
same,"% Control, Velvetleaf",[6]; 0.50 kg/ha,100%
same,"% Control, Velvetleaf",[6]; 1.00 kg/ha,100%
same,"control of crabgrass, foxtails and barnyardgrass, in words",naturally emerging weeds; compared to Treatment II,outstanding when compared to Treatment II
same,"% control results, in words","naturally emerging weeds; eight naturally emerging weeds, versus Treatment II",clearly superior to Treatment II
"O=C1C2=C(CCCC2)C(=O)N1c1ccc(Cl)cc1 [Treatment II, 2-(4-chlorophenyl)-4,5,6,7-tetrahydro-2H-isoindole-1,3-dione]","Crop Response, Rice Nato, 1 cm","rice, variety Nato; 0.25 kg/ha",5
same,"Crop Response, Rice Nato, 2 cm","rice, variety Nato; 0.25 kg/ha",0
same,"Crop Response, Rice Nato, T","rice, variety Nato; 0.25 kg/ha",1
same,"Crop Response, Rice Nato, 1 cm","rice, variety Nato; 0.50 kg/ha",8
same,"Crop Response, Rice Nato, 2 cm","rice, variety Nato; 0.50 kg/ha",1
same,"Crop Response, Rice Nato, T","rice, variety Nato; 0.50 kg/ha",1
same,"Crop Response, Rice Nato, 1 cm","rice, variety Nato; 1.0 kg/ha",9
same,"Crop Response, Rice Nato, 2 cm","rice, variety Nato; 1.0 kg/ha",4
same,"Crop Response, Rice Nato, T","rice, variety Nato; 1.0 kg/ha",1
same,"Crop Response, Rice Nato, 1 cm","rice, variety Nato; 2.0 kg/ha",9
same,"Crop Response, Rice Nato, 2 cm","rice, variety Nato; 2.0 kg/ha",6
same,"Crop Response, Rice Nato, T","rice, variety Nato; 2.0 kg/ha",2
same,"% Control, Ragweed",[3]; 0.5 kg/ha,50%
same,"% Control, Ragweed",[3]; 1.0 kg/ha,70%
same,"% Control, Ragweed",[3]; 2.0 kg/ha,90%
same,"% Control, Ragweed",[3]; 4.0 kg/ha,> 99%
same,"Crop Response, Carrots",carrots; 0.5 kg/ha,4
same,"Crop Response, Carrots",carrots; 1.0 kg/ha,4
same,"Crop Response, Carrots",carrots; 2.0 kg/ha,4
same,"Crop Response, Carrots",carrots; 4.0 kg/ha,4
same,"% Control, Barnyardgrass",[4]; 0.5 kg/ha,0%
same,"% Control, Barnyardgrass",[4]; 1.0 kg/ha,20%
same,"% Control, Barnyardgrass",[4]; 2.0 kg/ha,40%
same,"% Control, Barnyardgrass",[4]; 4.0 kg/ha,50%
same,"% Control, Purslane",[5]; 0.25 kg/ha,100%
same,"% Control, Purslane",[5]; 0.50 kg/ha,100%
same,"% Control, Purslane",[5]; 1.0 kg/ha,100%
same,"% Control, Purslane",[5]; 2.0 kg/ha,100%
same,"Crop Response, Rice CSM-3, 1 cm","rice, variety CSM-3; 0.25 kg/ha",4
same,"Crop Response, Rice CSM-3, 2 cm","rice, variety CSM-3; 0.25 kg/ha",1
same,"Crop Response, Rice CSM-3, T","rice, variety CSM-3; 0.25 kg/ha",0
same,"Crop Response, Rice CSM-3, 1 cm","rice, variety CSM-3; 0.50 kg/ha",5
same,"Crop Response, Rice CSM-3, 2 cm","rice, variety CSM-3; 0.50 kg/ha",2
same,"Crop Response, Rice CSM-3, T","rice, variety CSM-3; 0.50 kg/ha",0
same,"Crop Response, Rice CSM-3, 1 cm","rice, variety CSM-3; 1.0 kg/ha",7
same,"Crop Response, Rice CSM-3, 2 cm","rice, variety CSM-3; 1.0 kg/ha",4
same,"Crop Response, Rice CSM-3, T","rice, variety CSM-3; 1.0 kg/ha",0
same,"Crop Response, Rice CSM-3, 1 cm","rice, variety CSM-3; 2.0 kg/ha",10
same,"Crop Response, Rice CSM-3, 2 cm","rice, variety CSM-3; 2.0 kg/ha",7
same,"Crop Response, Rice CSM-3, T","rice, variety CSM-3; 2.0 kg/ha",1
